US20240287089A1, “Preparation and Uses of 7-Azaindenoisoquinolines” (Purdue Research Foundation, priority 0001, published 2024)
One block for each compound: values may come before it.

Experiments:
OVCAR-3 (Ovarian) = assay: NCI-60 cytotoxicity assay; type: cell-based, human; conditions: Homo sapiens; OVCAR-3 ovarian; 48 h, sulforhodamine B; read-out: Comparative Cytotoxicity GI50, Ovarian OVCAR-3
Protocol: (§1) The antiproliferative activities of the indenoisquinoline compounds are determined in the NCI-60 cancer cell lines of the National Cancer Institute Developmental Therapeutics Program (NCI-DTP). […] Cancer cells are incubated with the test compounds at five concentrations ranging from 100 μM to 10 nM for 48 h. After the treated cancer cells are stained with sulforhodamine B dye, the percentage growth is plotted as a function of the common logarithm of the tested compound concentration. […] The approximate average of GI50 values across the entire panel of NCI-60 cancer cell lines for each compound is recorded as the MGM value.
(§2) NCI-60 Cytotoxicity Assay. Compounds were submitted to the National Cancer Institute Developmental Therapeutic Program to determine their growth-inhibitory potentials in NCI-60 cell lines. All compounds satisfied the pre-screening proceeded into the 5-dose cell viability assay, in which cells were treated for 48 h at 5 dosages ranging from 100 μM to 10 nM.

SN12C (Renal) = assay: NCI-60 cytotoxicity assay; type: cell-based, human; conditions: Homo sapiens; SN12C renal; 48 h, sulforhodamine B; read-out: Comparative Cytotoxicity GI50, Renal SN12C
Protocol: as §1, §2

HCT-116 (Colon) = assay: NCI-60 cytotoxicity assay; type: cell-based, human; conditions: Homo sapiens; HCT-116 colon; 48 h, sulforhodamine B; read-out: Comparative Cytotoxicity GI50, Colon HCT-116
Protocol: as §1, §2

DU-145 (Prostate) = assay: NCI-60 cytotoxicity assay; type: cell-based, human; conditions: Homo sapiens; DU-145 prostate; 48 h, sulforhodamine B; read-out: Comparative Cytotoxicity GI50, Prostate DU-145
Protocol: as §1, §2

MCF7 (Breast) = assay: NCI-60 cytotoxicity assay; type: cell-based, human; conditions: Homo sapiens; MCF7 breast; 48 h, sulforhodamine B; read-out: Comparative Cytotoxicity GI50, Breast MCE7
Protocol: as §1, §2

UACC-62 (Melanoma) = assay: NCI-60 cytotoxicity assay; type: cell-based, human; conditions: Homo sapiens; UACC-62 melanoma; 48 h, sulforhodamine B; read-out: Comparative Cytotoxicity GI50, Melanoma UACC-62
Protocol: as §1, §2

HOP-62 (Lung) = assay: NCI-60 cytotoxicity assay; type: cell-based, human; conditions: Homo sapiens; HOP-62 lung; 48 h, sulforhodamine B; read-out: Comparative Cytotoxicity GI50, Lung HOP-62
Protocol: as §1, §2

NCI-60 cancer cell lines = assay: NCI-60 cytotoxicity assay, MGM; type: cell-based; conditions: Homo sapiens; entire panel of NCI-60 cancer cell lines; read-out: MGM (approximate average of GI50 values across the NCI-60 panel)
Protocol: as §1, §2

SF-539 (CNS) = assay: NCI-60 cytotoxicity assay; type: cell-based; conditions: Homo sapiens; SF-539 CNS; 48 h, sulforhodamine B; read-out: Comparative Cytotoxicity GI50, CNS SF-539
Protocol: as §1, §2

Caco-2 cells = assay: Caco-2 permeability; type: in vitro ADME; conditions: for Efflux Ratio / Recovery (%)AP-BL / Recovery (%)BL-AP: Caco-2; for Papp (A→B) / Papp (B→A): Caco-2, 5 μM, 2 h
[1] = Brain penetration and plasma/brain pharmacokinetics in combination with Temodar or Lynparza
[2] = Temador 125 mg/kg PO + LMP400 10 mg/kg IV, 1 h
[3] = Temador 125 mg/kg PO + LMP400 10 mg/kg IV, 2 h
[4] = Temador 125 mg/kg PO + LMP400 10 mg/kg IV, 4 h
[5] = Temador 125 mg/kg PO + LMP400 10 mg/kg IV, 8 h
[6] = Temador 125 mg/kg PO + LMP400 10 mg/kg IV, 24 h
[7] = Temador 125 mg/kg PO + LMP744 20 mg/kg IV, 0.25 h
[8] = Temador 125 mg/kg PO + LMP744 20 mg/kg IV, 0.5 h
[9] = Temador 125 mg/kg PO + LMP744 20 mg/kg IV, 1 h
[10] = Temador 125 mg/kg PO + LMP744 20 mg/kg IV, 2 h
[11] = Temador 125 mg/kg PO + LMP744 20 mg/kg IV, 4 h
[12] = Temador 125 mg/kg PO + LMP744 20 mg/kg IV, 8 h
[13] = Temador 125 mg/kg PO + LMP744 20 mg/kg IV, 24 h

SMILES: COc1cnc2c(c1)C(=O)c1c-2n(CCCn2ccnc2)c(=O)c2cc(OC)c(OC)cc12 [A8]
GI50 (OVCAR-3 (Ovarian)): 600 nM
GI50 (SN12C (Renal)): 56 nM
GI50 (HCT-116 (Colon)): 110 nM
GI50 (DU-145 (Prostate)): 61 nM
GI50 (MCF7 (Breast)): 30 nM
GI50 (UACC-62 (Melanoma)): 40 nM
GI50 (HOP-62 (Lung)): 42 nM
GI50 (NCI-60 cancer cell lines): 240 nM
GI50 (SF-539 (CNS)): 53 nM

SMILES: COc1cc2c3c(n(CCCNCC4CC4)c(=O)c2cc1OC)-c1cc2c(cc1C3=O)OCO2 [A1]
GI50 (OVCAR-3 (Ovarian)): 1420 nM
GI50 (SN12C (Renal)): 1370 nM
GI50 (HCT-116 (Colon)): 1140 nM
GI50 (DU-145 (Prostate)): 760 nM
GI50 (MCF7 (Breast)): 95 nM
GI50 (UACC-62 (Melanoma)): 2860 nM
GI50 (HOP-62 (Lung)): 350 nM
GI50 (NCI-60 cancer cell lines): 1320 nM
GI50 (SF-539 (CNS)): 760 nM

Efflux Ratio (Caco-2 cells): 3.39
Recovery (%)AP-BL (Caco-2 cells): 79.64%
Recovery (%)BL-AP (Caco-2 cells): 94.99%
Papp (A→B) (Caco-2 cells): 9.28 10^−6, cm/s
Papp (B→A) (Caco-2 cells): 31.47 10^−6, cm/s
SMILES: COc1cc2nc(N3CCN(C(=O)c4ccco4)CC3)nc(N)c2cc1OC [Prazosin]

SMILES: COc1cc2c3c(n(CCCN4CCC[C@H]4C(N)=O)c(=O)c2cc1OC)-c1cc2c(cc1C3=O)OCO2 [A5]
GI50 (OVCAR-3 (Ovarian)): 160 nM
GI50 (SN12C (Renal)): 42 nM
GI50 (HCT-116 (Colon)): 35 nM
GI50 (DU-145 (Prostate)): 38 nM
GI50 (MCF7 (Breast)): 10 nM
GI50 (UACC-62 (Melanoma)): 21 nM
GI50 (HOP-62 (Lung)): 31 nM
GI50 (NCI-60 cancer cell lines): 125 nM
GI50 (SF-539 (CNS)): 30 nM

Plasma Conc ([1]; Temador 125 mg/kg PO + LMP400 10 mg/kg IV, 0.25 h): 311.591 ± 40.73 µM
Brain Conc [1, 2]: 102.567 ± 16.241 µM
Brain/Plasma Conc Ratio [1, 2]: 0.50
Brain/Plasma Conc Ratio [1, 3]: 0.56
Plasma Conc [1, 3]: 80.639 ± 5.808 µM
Brain Conc [1, 4]: 4.739 ± 0.585 µM
Plasma Conc [1, 4]: 10.345 ± 0.724 µM
Brain Conc [1, 5]: 1.236 ± 0.654 µM
Brain/Plasma Conc Ratio [1, 5]: 0.38
Plasma Conc [1, 5]: 3.295 ± 1.528 µM
Brain Conc [1, 6]: 0.122 ± 0.004 µM
Brain/Plasma Conc Ratio [1, 6]: 0.01
Plasma Conc [1, 6]: 10.009 ± 5.943 µM
Brain Conc [1, 7]: 123.222 ± 49.748 µM
Brain/Plasma Conc Ratio [1, 7]: 0.33
Plasma Conc [1, 7]: 376.314 ± 182.744 µM
Brain Conc [1, 8]: 83.539 ± 43.505 µM
Brain/Plasma Conc Ratio [1, 8]: 0.23
Plasma Conc [1, 8]: 370.863 ± 119.965 µM
Brain/Plasma Conc Ratio [1, 9]: 0.46
Plasma Conc [1, 9]: 357.779 ± 86.447 µM
Brain Conc [1, 10]: 96.544 ± 15.254 µM
Brain/Plasma Conc Ratio [1, 10]: 0.15
Brain Conc [1, 11]: 12.75 ± 2.849 µM
Brain/Plasma Conc Ratio [1, 11]: 0.47
Plasma Conc [1, 11]: 27.155 ± 4.732 µM
Brain Conc [1, 12]: 5.765 ± 3.855 µM
Brain/Plasma Conc Ratio [1, 12]: 0.57
Plasma Conc [1, 12]: 10.048 ± 6.715 µM
Brain Conc [1, 13]: 0.914 ± 0.532 µM
Brain/Plasma Conc Ratio [1, 13]: 0.60
concentration at 0.25 h ([1]; mouse, brain, oral, Brain Conc, Temador 125 mg/kg PO + LMP400 10 mg/kg IV, 0.25 h): 86.6 ± 10.4 µM
concentration at 0.5 h ([1]; mouse, brain, oral, Brain Conc, Temador 125 mg/kg PO + LMP400 10 mg/kg IV, 0.5 h): 47.4 ± 24.5 µM
concentration at 1 h ([1]; mouse, brain, oral, Brain Conc, Temador 125 mg/kg PO + LMP744 20 mg/kg IV, 1 h): 154 ± 38.8 µM
concentration at 0.5 h ([1]; mouse, plasma, oral, Plasma Conc, Temador 125 mg/kg PO + LMP400 10 mg/kg IV, 0.5 h): 389 ± 66 µM
concentration at 1 h ([1]; mouse, plasma, oral, Plasma Conc, Temador 125 mg/kg PO + LMP400 10 mg/kg IV, 1 h): 205 ± 27.3 µM
concentration at 2 h ([1]; mouse, plasma, oral, Plasma Conc, Temador 125 mg/kg PO + LMP744 20 mg/kg IV, 2 h): 552 ± 309 µM
concentration at 24 h ([1]; mouse, plasma, oral, Plasma Conc, Temador 125 mg/kg PO + LMP744 20 mg/kg IV, 24 h): 1.58 ± 0.509 µM
SMILES: Cn1nnc2c(C(N)=O)ncn2c1=O [Temadar]

Efflux Ratio (Caco-2 cells): 0.70
Recovery (%)AP-BL (Caco-2 cells): 80.74%
Recovery (%)BL-AP (Caco-2 cells): 92.73%
Papp (A→B) (Caco-2 cells): 25.34 10^−6, cm/s
Papp (B→A) (Caco-2 cells): 17.63 10^−6, cm/s
SMILES: CC(C)NCC(O)COc1cccc2ccccc12 (stereo not drawn) [Propranolol]
